According to patent US8206764B2, “Black soybean hull extract, method for obtaining, and use thereof” (Beijing Gingko-Group Biological Technology Co., Ltd., priority 2006, dated 2012):

Assay: clearance of hydroxyl free radicals, orthophenanthroline Fe2+ oxidation method
Assay type: biochemical
Set-up: Clearance rate of •OH (d): unit not given here
Conditions: for Clearance rate of •OH (d): n = 5
Description: Materials and methods-test drug and reagent: Extract of black soybean hull A (containing cyanidin 12.52%, catechin 13.50%, and OPC 54.01%). Orthophenanthroline, hydrogen peroxide, ascorbic acid (VC), and FeSO4.7H2O were all analytical pure reagents made in China. Materials and Methods-instruments: An LSY constant temperature water bath was obtained from a Beijing medical instrument manufacturer, and a UV-2000 spectrophotometer was from […], Shanghai Instrument Co., Ltd.). Test method-reagent preparation: Reagents included 0.1% H2O[…]), a 5 mmol/L anhydrous ethanol solution of orthophenanthroline, 0.75 mmol/L FeSO4, a 0.2 mmol/L phosphoric acid buffer solution (PBS; pH=7.4), BSHE A, prepared with double distilled water and diluted to concentrations of 0.5, 0.25, 0.125, and 0.0625 mg/ml, and ascorbic acid, prepared at concentrations of 4, 2, 1, and 0.5 mg/ml with double distilled water. Test method-measuring hydroxyl free radicals: The clearing of hydroxyl free radicals was tested using an orthophenanthrolin Fe^2+ oxidation method to further evaluate the anti-oxidation capacity of BSHE A. (1) 2 ml PBS, the test drug at the concentrations listed above, and 1 ml ascorbic acid were sequentially added to a disposable 10 ml polyethylene test tube and shaken. 0.35 ml of 5 mmol/L orthophenanthroline solution and 1 ml 0.75 mmol/L FeSO4 were added and mixed fully. 1 ml of 0.1% H2O2 was added, and the tube was vibrated for 1 minute. […] (2) The 1 ml of test drug in (1) was replaced with 1 ml deionized water, while the other conditions were the same as in (1). The absorbency value Ab was measured. (3) The 1 ml H2O2 in (2) was replaced with 1 ml deionized water, while the other conditions were the same as in (2). The absorbency value Ac was measured. (4) The clearance rate (d) of .OH by the test drug and the positive comparison was calculated according to the following equation: [formula] The total volume of reaction was 5.35 ml. The final concentrations of ascorbic acid thus were 0.748 mg/ml, 0.374 mg/ml, 0.187 mg/ml, and 0.093 mg/ml, while the final concentrations of BSHE A were 0.093 mg/ml, 0.047 mg/ml, 0.023 mg/ml, and 0.012 mg/ml. Five samples were tested in each group. The clearance rate of .OH was calculated individually and then average values were calculated.

## O=C1O[C@H]([C@@H](O)CO)C(O)=C1O [ascorbic acid]
Final concentration 0.093 mg/ml
  Clearance rate of •OH (d): 0.212 ± 2.47
Final concentration 0.187 mg/ml
  Clearance rate of •OH (d): 4.21 ± 1.32
Final concentration 0.374 mg/ml
  Clearance rate of •OH (d): 50.32 ± 4.29
Final concentration 0.748 mg/ml
  Clearance rate of •OH (d): 91.29 ± 3.26
From fitted line
  IC50 of hydroxyl free radical clearance: 401.4 µg/mL
